The assay has as its target Plasma kallikrein (Homo sapiens, UniProt P03952). Kind of assay: Measurements were performed in a kinetic interval every 2nd minute for 16 min using a Spectramax M5 (Molecular Devices) with the following settings of the wavelength excitation of 350 nm and wavelength emission of 450 nm.

Plasma kallikrein, sequence (P03952 20-390 limits assumed): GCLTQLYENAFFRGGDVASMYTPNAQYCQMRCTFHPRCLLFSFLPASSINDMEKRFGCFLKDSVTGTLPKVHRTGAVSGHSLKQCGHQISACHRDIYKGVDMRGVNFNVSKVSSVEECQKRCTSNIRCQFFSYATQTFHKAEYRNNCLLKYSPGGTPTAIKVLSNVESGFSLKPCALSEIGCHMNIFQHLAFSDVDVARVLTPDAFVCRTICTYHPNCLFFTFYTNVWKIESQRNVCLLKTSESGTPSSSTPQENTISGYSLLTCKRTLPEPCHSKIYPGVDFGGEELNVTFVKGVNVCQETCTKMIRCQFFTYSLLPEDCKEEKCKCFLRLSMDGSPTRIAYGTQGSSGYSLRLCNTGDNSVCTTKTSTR
Plasma kallikrein, sequence (P03952 391-638 limits assumed): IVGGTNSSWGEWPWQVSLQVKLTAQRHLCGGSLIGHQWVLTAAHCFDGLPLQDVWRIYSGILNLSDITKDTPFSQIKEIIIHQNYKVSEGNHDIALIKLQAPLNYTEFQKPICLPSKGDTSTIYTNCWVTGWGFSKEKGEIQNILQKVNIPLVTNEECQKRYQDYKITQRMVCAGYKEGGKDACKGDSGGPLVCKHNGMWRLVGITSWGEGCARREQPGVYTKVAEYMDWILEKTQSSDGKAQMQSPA

In general, Ki refers to the equilibrium dissociation constant of an inhibitor or competing ligand from its target. Higher therefore signals weaker binding. `Cc1nc(N2CC3(CC3)C2)ccc1Cn1cc(C(=O)N[C@@H]2CCc3c(C)n[nH]c32)cn1` gave an inhibition constant (Ki) of 0.4 nM. On to `Cc1nc(N2CC3C(C2)C3(F)F)ccc1Cn1cc(C(=O)N[C@@H]2CCc3c(C)n[nH]c32)c(C)n1` (some centres not stated), for which the affinity corresponds to a Ki of 0.1 nM.

The record behind these values is ChEMBL document CHEMBL5727776, “Heteroaromatic carboxamide derivatives as plasma kallikrein inhibitors” (2020).
